Experimental data from patent EP4725957A1, “GROUP OF CYCLIC ALKALINE LIPOPEPTIDE COMPOUNDS, AND PREPARATION METHOD THEREFOR AND USE THEREOF” (Institute of Medicinal Biotechnology, Chinese Academy of …, priority 2023, dated 2024).
Values after ≈ are worked out from the molar mass of the structure shown. Where two headings read alike, the source gives them in different places. Bridge positions count the residues as written; N and C are the ends. Square brackets hold non-standard residues; d marks the D form. Peptide text beside a SMILES is read from it. * marks the point of attachment. Dab(CH2SO3H) = N[C@@H](CCNCS(=O)(=O)O)C(=O)O; Heptanoyl(6-Me) = CC(C)CCCCC(=O)*; Sulfomethyl = O=S(=O)(O)C*; Nonanoyl = CCCCCCCCC(=O)*; X1 = CC[C@H](C)CCCCC(=O)*; dDab = NCC[C@@H](N)C(=O)O; Octanoyl = CCCCCCCC(=O)*; Orn = NCCC[C@H](N)C(=O)O; dDap = NC[C@@H](N)C(=O)O; Dab = NCC[C@H](N)C(=O)O; Dap = NC[C@H](N)C(=O)O

Key:
Assay type in all cases: cell-based
[1] = tested on: Acinetobacter baumannii ABA19-1
In short: (§1)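 In this CLSI-based assay, serially halved compound (final 64–0.03 mg/L) was exposed to (2-4) × 10^5 CFU/mL bacteria in MH broth at 35-37°C for 16-20 h. The readout was the MIC.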

[2] = tested on: Acinetobacter baumannii NCTC 13304 (OXA-27)
In short: as §1

[3] = tested on: Escherichia coli ATCC BAA-2340 (KPC)
In short: as §1

[4] = tested on: Escherichia coli ATCC BAA-2523
In short: as §1

[5] = tested on: Klebsiella pneumoniae ATCC BAA-1705 (KPC)
In short: as §1

[6] = tested on: Klebsiella pneumoniae KPN+19-15
In short: as §1

[7] = tested on: Pseudomonas aeruginosa ATCC 27853
In short: as §1

[8] = tested on: Pseudomonas aeruginosa PAE19-3
In short: as §1

[9] = Nephrotoxicity assay: in vitro cytotoxicity of HK-2 cells by CCK-8 assay; conditions: human, HK-2 cells (human renal), 72 h incubation with drug-containing medium
In short: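 Compounds in sterile water, diluted to final 500, 250, 200, 100, 50, 25 and 12.5 µg/mL, were applied for 72 h to human HK-2 kidney cells. Absorbance at 450 nm after 3 h CCK-8 gave viability against untreated wells, and IC50 came from logarithmic regression; three replicates.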

SMILES	MIC ([1]; ABA19-1) [µg/mL]	MIC ([2]; NCTC 13304) [µg/mL]	MIC ([3]; ATCC BAA-2340) [µg/mL]	MIC ([4]; ATCC BAA-2523) [µg/mL]	MIC ([5]; ATCC BAA-1705) [µg/mL]	MIC ([6]; KPN+19-15) [µg/mL]	MIC ([7]; ATCC 27853) [µg/mL]	MIC ([8]; PAE19-3) [µg/mL]	IC50 at 72 h [9] [µg/mL]	MIC ([1]; Acinetobacter baumannii ABA19-1) [µg/mL]	MIC ([2]; Acinetobacter baumannii NCTC 13304 (OXA-27)) [µg/mL]	MIC ([3]; Escherichia coli ATCC BAA-2340 (KPC)) [µg/mL]	MIC ([4]; Escherichia coli ATCC BAA-2523) [µg/mL]	MIC ([5]; Klebsiella pneumoniae ATCC BAA-1705 (KPC)) [µg/mL]	MIC ([6]; Klebsiella pneumoniae KPN 19-15) [µg/mL]	MIC ([7]; Pseudomonas aeruginosa ATCC27853) [µg/mL]	MIC ([8]; Pseudomonas aeruginosa PAE19-3) [µg/mL]
CCCCCCCC(=O)N[C@@H](CCN)C(=O)N[C@H](C(=O)N[C@H](CO)C(=O)N[C@H]1CCNC(=O)[C@H]([C@@H](C)O)NC(=O)[C@H](CCN)NC(=O)[C@H](CCN)NC(=O)[C@H]([C@@H](C)O)NC(=O)[C@@H](Cc2ccccc2)NC(=O)[C@H](CN)NC1=O)[C@@H](C)O [Compound 63, Octanoyl-Dab-Thr-D-Ser-ring(4-10)[Dab-Dap-D-Phe-Thr-Dab-Dab-Thr]] (Octanoyl-[Dab]T[dS][Dab][Dap][dF]T[Dab][Dab]T; lactam 4-C)	0.25 (≈ 0.217 µM)	0.25 (≈ 0.217 µM)	0.125 (≈ 0.109 µM)	0.125 (≈ 0.109 µM)	0.25 (≈ 0.217 µM)	0.5 (≈ 0.435 µM)	64 (≈ 55.6 µM)	4 (≈ 3.48 µM)	> 500								
CC[C@H](C)CCCCC(=O)N[C@@H](CCCN)C(=O)N[C@H](C(=O)N[C@H](CO)C(=O)N[C@H]1CCNC(=O)[C@H]([C@@H](C)O)NC(=O)[C@H](CCN)NC(=O)[C@H](CCN)NC(=O)[C@H]([C@@H](C)O)NC(=O)[C@@H](Cc2ccccc2)NC(=O)[C@H](CCN)NC1=O)[C@@H](C)O [Compound 56, (S)-6-methyloctanoyl-Orn-Thr-D-Ser-ring(4-10)[Dab-Dab-D-Phe-Thr-Dab-Dab-Thr]] (X1-[Orn]T[dS][Dab][Dab][dF]T[Dab][Dab]T; lactam 4-C)	0.25 (≈ 0.21 µM)	0.25 (≈ 0.21 µM)	0.125 (≈ 0.105 µM)	0.125 (≈ 0.105 µM)	0.25 (≈ 0.21 µM)	0.5 (≈ 0.419 µM)	64 (≈ 53.7 µM)	4 (≈ 3.35 µM)	> 500								
CC(C)CCCCC(=O)N[C@@H](CCN)C(=O)N[C@H](C(=O)N[C@@H](CN)C(=O)N[C@H]1CCNC(=O)[C@H]([C@@H](C)O)NC(=O)[C@H](CCN)NC(=O)[C@H](CCN)NC(=O)[C@H]([C@@H](C)O)NC(=O)[C@@H](Cc2ccccc2)NC(=O)[C@H](CCNCS(=O)(=O)O)NC1=O)[C@@H](C)O [Compound 118, 6-methylheptanoyl-Dab-Thr-Dap-ring(4-10)[Dab-Dab(CH2SO3H)-D-Phe-Thr-Dab-Dab-Thr]] ({Heptanoyl(6-Me)}-[Dab]T[Dap][Dab][Dab(CH2SO3H)][dF]T[Dab][Dab]T; lactam 4-C)	0.25 (≈ 0.199 µM)	0.06 (≈ 0.0477 µM)	0.06 (≈ 0.0477 µM)	0.06 (≈ 0.0477 µM)	0.125 (≈ 0.0994 µM)	0.125 (≈ 0.0994 µM)	0.25 (≈ 0.199 µM)	0.5 (≈ 0.398 µM)	> 500								
CC(C)CCCCC(=O)N[C@@H](CCN)C(=O)N[C@H](C(=O)N[C@H](CN)C(=O)N[C@H]1CCNC(=O)[C@H]([C@@H](C)O)NC(=O)[C@H](CCN)NC(=O)[C@H](CCN)NC(=O)[C@H]([C@@H](C)O)NC(=O)[C@H](Cc2ccccc2)NC(=O)[C@H](CCN)NC1=O)[C@@H](C)O [Compound 102, 6-methylheptanoyl-Dab-Thr-D-Dap-ring(4-10)[Dab-Dab-Phe-Thr-Dab-Dab-Thr]] ({Heptanoyl(6-Me)}-[Dab]T[dDap][Dab][Dab]FT[Dab][Dab]T; lactam 4-C)									> 500	>64	>64	>64	>64	>64	>64	>64	>64
CC(C)CCCCC(=O)N[C@@H](CCNCS(=O)(=O)O)C(=O)N[C@H](C(=O)N[C@@H](CN)C(=O)N[C@H]1CCNC(=O)[C@H]([C@@H](C)O)NC(=O)[C@H](CCN)NC(=O)[C@H](CCN)NC(=O)[C@H]([C@@H](C)O)NC(=O)[C@@H](Cc2ccccc2)NC(=O)[C@H](CCN)NC1=O)[C@@H](C)O [Compound 117, 6-methylheptanoyl-Dab(CH2SO3H)-Thr-Dap-ring(4-10)[Dab-Dab-D-Phe-Thr-Dab-Dab-Thr]] ({Heptanoyl(6-Me)}-[Dab(CH2SO3H)]T[Dap][Dab][Dab][dF]T[Dab][Dab]T; lactam 4-C)	0.25 (≈ 0.199 µM)	0.06 (≈ 0.0477 µM)	0.06 (≈ 0.0477 µM)	0.06 (≈ 0.0477 µM)	0.125 (≈ 0.0994 µM)	0.125 (≈ 0.0994 µM)	0.25 (≈ 0.199 µM)	0.5 (≈ 0.398 µM)	> 500								
CC[C@H](C)CCCCC(=O)N[C@@H](CCN)C(=O)N[C@H](C(=O)N[C@H](CCN)C(=O)N[C@H]1CCNC(=O)[C@H]([C@@H](C)O)NC(=O)[C@H](CCN)NC(=O)[C@H](CCN)NC(=O)[C@H]([C@@H](C)O)NC(=O)[C@@H](Cc2ccccc2)NC(=O)[C@H](CCN)NC1=O)[C@@H](C)O [Compound 11, (S)-6-methyloctanoyl-Dab-Thr-D-Dab-ring(4-10)[Dab-Dab-D-Phe-Thr-Dab-Dab-Thr]] (X1-[Dab]T[dDab][Dab][Dab][dF]T[Dab][Dab]T; lactam 4-C)	≤0.03	≤0.03	≤0.03	≤0.03	≤0.03	≤0.03	1 (≈ 0.839 µM)	1 (≈ 0.839 µM)	371 ± 54.6 (≈ 311 µM)								
CC(C)CCCCC(=O)N[C@@H](CCN)C(=O)N[C@H](C(=O)N[C@H](CO)C(=O)N[C@H]1CCNC(=O)[C@H]([C@@H](C)O)NC(=O)[C@H](CCN)NC(=O)[C@H](CCN)NC(=O)[C@H]([C@@H](C)OCS(=O)(=O)O)NC(=O)[C@@H](Cc2ccccc2)NC(=O)[C@H](CCN)NC1=O)[C@@H](C)O [Compound 105, 6-methylheptanoyl-Dab-Thr-D-Ser-ring(4-10)[Dab-Dab-D-Phe-Thr(CH2SO3H)-Dab-Dab-Thr]] ({Heptanoyl(6-Me)}-[Dab]T[dS][Dab][Dab][dF]T(Sulfomethyl)[Dab][Dab]T; lactam 4-C)	0.06 (≈ 0.0477 µM)	0.06 (≈ 0.0477 µM)	0.03 (≈ 0.0238 µM)	0.03 (≈ 0.0238 µM)	0.125 (≈ 0.0993 µM)	0.125 (≈ 0.0993 µM)	0.25 (≈ 0.199 µM)	0.25 (≈ 0.199 µM)	> 500								
CC[C@H](C)CCCCC(=O)N[C@@H](CCN)C(=O)N[C@H](C(=O)N[C@@H](CCCN)C(=O)N[C@H]1CCNC(=O)[C@H]([C@@H](C)O)NC(=O)[C@H](CCN)NC(=O)[C@H](CCN)NC(=O)[C@H]([C@@H](C)O)NC(=O)[C@@H](Cc2ccccc2)NC(=O)[C@H](CCN)NC1=O)[C@@H](C)O [Compound 26, (S)-6-methyloctanoyl-Dab-Thr-Orn-ring(4-10)[Dab-Dab-D-Phe-Thr-Dab-Dab-Thr]] (X1-[Dab]T[Orn][Dab][Dab][dF]T[Dab][Dab]T; lactam 4-C)	0.125 (≈ 0.104 µM)	0.06 (≈ 0.0498 µM)	≤0.03	≤0.03	≤0.03	≤0.03	≤0.03	0.25 (≈ 0.207 µM)	> 500								
CC(C)CCCCC(=O)N[C@@H](CCN)C(=O)N[C@H](C(=O)N[C@@H](CN)C(=O)N[C@H]1CCNC(=O)[C@H]([C@@H](C)O)NC(=O)[C@H](CCN)NC(=O)[C@H](CCN)NC(=O)[C@H]([C@@H](C)O)NC(=O)[C@@H](Cc2ccccc2)NC(=O)[C@H](CCN)NC1=O)[C@@H](C)OCS(=O)(=O)O [Compound 113, 6-methylheptanoyl-Dab-Thr(CH2SO3H)-Dap-ring(4-10)[Dab-Dab-D-Phe-Thr-Dab-Dab-Thr]] ({Heptanoyl(6-Me)}-[Dab]T(Sulfomethyl)[Dap][Dab][Dab][dF]T[Dab][Dab]T; lactam 4-C)	0.06 (≈ 0.0477 µM)	0.06 (≈ 0.0477 µM)	0.03 (≈ 0.0239 µM)	0.03 (≈ 0.0239 µM)	0.125 (≈ 0.0994 µM)	0.125 (≈ 0.0994 µM)	0.25 (≈ 0.199 µM)	0.25 (≈ 0.199 µM)	> 500								
CCCCCCCCC(=O)N[C@@H](CCN)C(=O)N[C@H](C(=O)N[C@H](CO)C(=O)N[C@H]1CCNC(=O)[C@H]([C@@H](C)O)NC(=O)[C@H](CCN)NC(=O)[C@H](CCCN)NC(=O)[C@H]([C@@H](C)O)NC(=O)[C@@H](Cc2ccccc2)NC(=O)[C@H](CCN)NC1=O)[C@@H](C)O [Compound 80, Nonanoyl-Dab-Thr-D-Ser-ring(4-10)[Dab-Dab-D-Phe-Thr-Orn-Dab-Thr]] (Nonanoyl-[Dab]T[dS][Dab][Dab][dF]T[Orn][Dab]T; lactam 4-C)	0.06 (≈ 0.0503 µM)	0.03 (≈ 0.0252 µM)	0.06 (≈ 0.0503 µM)	0.06 (≈ 0.0503 µM)	0.25 (≈ 0.21 µM)	0.5 (≈ 0.419 µM)	>64	64 (≈ 53.7 µM)	288 ± 19.5 (≈ 241 µM)								
